According to ChEMBL document CHEMBL5505952, “Targeting SARS-CoV-2 entry processes: The promising potential and future of host-targeted small-molecule inhibitors” (Eur J Med Chem, 2024):
Where a SMILES comes first, the peptide text is derived from it. [ ]: non-standard residue; d: D form. The star is where a group is joined. Nle = CCCC[C@H](N)C(=O)O; Cbz = O=C(OCc1ccccc1)*

Legend:
[1] = tested on: SARS-CoV-2; assay: microbe, parasite or virus in culture; conditions: Severe acute respiratory syndrome coronavirus 2, Vero C1008, 24 h
[2] = target: Procathepsin L (Homo sapiens, UniProt P07711); assay: Inhibition of human recombinant Cathepsin L using Z-Phe-Arg-AMC as substrate incubated for 60 mins by fluorescence spectrophotometric analysis
[3] = tested on: SARS-CoV-2; type: functional, organism-based; conditions: Severe acute respiratory syndrome coronavirus 2, Wuhan-Hu-1, Vero C1008
[4] = target: Replicase polyprotein 1ab (Severe acute respiratory syndrome coronavirus 2, UniProt P0DTD1); assay: Inhibition of SARS-Cov-2 Main protease by FRET assay
[5] = tested on: SARS-CoV-2; type: functional, organism-based; conditions: Severe acute respiratory syndrome coronavirus 2, Huh-7
[6] = tested on: SARS-CoV-2; assay: microbe, parasite or virus in culture; conditions: Severe acute respiratory syndrome coronavirus 2, Huh-7
[7] = target: Neuropilin-1 (Homo sapiens, UniProt O14786); assay: Inhibition of [125I]-VEGF-A165 binding to NRP1 (unknown origin) in HUVEC cells; type: cell-based
[8] = tested on: RAW264.7; assay: Antiinflammatory activity in mouse RAW264.7 cells assessed as effect on LPS induced IL-12p40 level measured after 24 hrs by RT-qPCR analysis; type: functional, cell-based; conditions: RAW264.7, 24 h
[9] = tested on: SARS-CoV-2; assay: Antiviral activity against VSV-S pseudotyped SARS-CoV-2 infected in human Calu-3 cells assessed as inhibition of viral growth; type: functional, organism-based; conditions: Severe acute respiratory syndrome coronavirus 2, Calu-3
[10] = tested on: SARS-CoV-2; type: functional, organism-based; conditions: Severe acute respiratory syndrome coronavirus 2, NRC-03-nhCoV, Vero C1008, 72 h
[11] = tested on: SARS-CoV-2; type: functional, organism-based; conditions: Severe acute respiratory syndrome coronavirus 2, Vero C1008, 72 h
[12] = tested on: SARS-CoV-2; assay: microbe, parasite or virus in culture; conditions: Severe acute respiratory syndrome coronavirus 2, Calu-3, 48 h
[13] = tested on: SARS-CoV-2; assay: microbe, parasite or virus in culture; conditions: Severe acute respiratory syndrome coronavirus 2, Vero C1008, 24 h; remark: listed apart in the source
[14] = target: 1-phosphatidylinositol 3-phosphate 5-kinase (Homo sapiens, UniProt Q9Y2I7); assay: Inhibition of PIKfyve (unknown origin)
[15] = tested on: SARS-CoV-2; type: functional, organism-based; conditions: Severe acute respiratory syndrome coronavirus 2, Vero C1008, 48 h
[16] = tested on: Dengue virus; type: functional, organism-based; conditions: Huh-7, 48 h
[17] = tested on: Ebolavirus; assay: Antiviral activity against Ebola virus infected in human HeLa cells assessed as reduction in viral cytopathic effect; type: functional, organism-based; conditions: Orthoebolavirus

1-phosphatidylinositol 3-phosphate 5-kinase, sequence (Q9Y2I7 whole entry): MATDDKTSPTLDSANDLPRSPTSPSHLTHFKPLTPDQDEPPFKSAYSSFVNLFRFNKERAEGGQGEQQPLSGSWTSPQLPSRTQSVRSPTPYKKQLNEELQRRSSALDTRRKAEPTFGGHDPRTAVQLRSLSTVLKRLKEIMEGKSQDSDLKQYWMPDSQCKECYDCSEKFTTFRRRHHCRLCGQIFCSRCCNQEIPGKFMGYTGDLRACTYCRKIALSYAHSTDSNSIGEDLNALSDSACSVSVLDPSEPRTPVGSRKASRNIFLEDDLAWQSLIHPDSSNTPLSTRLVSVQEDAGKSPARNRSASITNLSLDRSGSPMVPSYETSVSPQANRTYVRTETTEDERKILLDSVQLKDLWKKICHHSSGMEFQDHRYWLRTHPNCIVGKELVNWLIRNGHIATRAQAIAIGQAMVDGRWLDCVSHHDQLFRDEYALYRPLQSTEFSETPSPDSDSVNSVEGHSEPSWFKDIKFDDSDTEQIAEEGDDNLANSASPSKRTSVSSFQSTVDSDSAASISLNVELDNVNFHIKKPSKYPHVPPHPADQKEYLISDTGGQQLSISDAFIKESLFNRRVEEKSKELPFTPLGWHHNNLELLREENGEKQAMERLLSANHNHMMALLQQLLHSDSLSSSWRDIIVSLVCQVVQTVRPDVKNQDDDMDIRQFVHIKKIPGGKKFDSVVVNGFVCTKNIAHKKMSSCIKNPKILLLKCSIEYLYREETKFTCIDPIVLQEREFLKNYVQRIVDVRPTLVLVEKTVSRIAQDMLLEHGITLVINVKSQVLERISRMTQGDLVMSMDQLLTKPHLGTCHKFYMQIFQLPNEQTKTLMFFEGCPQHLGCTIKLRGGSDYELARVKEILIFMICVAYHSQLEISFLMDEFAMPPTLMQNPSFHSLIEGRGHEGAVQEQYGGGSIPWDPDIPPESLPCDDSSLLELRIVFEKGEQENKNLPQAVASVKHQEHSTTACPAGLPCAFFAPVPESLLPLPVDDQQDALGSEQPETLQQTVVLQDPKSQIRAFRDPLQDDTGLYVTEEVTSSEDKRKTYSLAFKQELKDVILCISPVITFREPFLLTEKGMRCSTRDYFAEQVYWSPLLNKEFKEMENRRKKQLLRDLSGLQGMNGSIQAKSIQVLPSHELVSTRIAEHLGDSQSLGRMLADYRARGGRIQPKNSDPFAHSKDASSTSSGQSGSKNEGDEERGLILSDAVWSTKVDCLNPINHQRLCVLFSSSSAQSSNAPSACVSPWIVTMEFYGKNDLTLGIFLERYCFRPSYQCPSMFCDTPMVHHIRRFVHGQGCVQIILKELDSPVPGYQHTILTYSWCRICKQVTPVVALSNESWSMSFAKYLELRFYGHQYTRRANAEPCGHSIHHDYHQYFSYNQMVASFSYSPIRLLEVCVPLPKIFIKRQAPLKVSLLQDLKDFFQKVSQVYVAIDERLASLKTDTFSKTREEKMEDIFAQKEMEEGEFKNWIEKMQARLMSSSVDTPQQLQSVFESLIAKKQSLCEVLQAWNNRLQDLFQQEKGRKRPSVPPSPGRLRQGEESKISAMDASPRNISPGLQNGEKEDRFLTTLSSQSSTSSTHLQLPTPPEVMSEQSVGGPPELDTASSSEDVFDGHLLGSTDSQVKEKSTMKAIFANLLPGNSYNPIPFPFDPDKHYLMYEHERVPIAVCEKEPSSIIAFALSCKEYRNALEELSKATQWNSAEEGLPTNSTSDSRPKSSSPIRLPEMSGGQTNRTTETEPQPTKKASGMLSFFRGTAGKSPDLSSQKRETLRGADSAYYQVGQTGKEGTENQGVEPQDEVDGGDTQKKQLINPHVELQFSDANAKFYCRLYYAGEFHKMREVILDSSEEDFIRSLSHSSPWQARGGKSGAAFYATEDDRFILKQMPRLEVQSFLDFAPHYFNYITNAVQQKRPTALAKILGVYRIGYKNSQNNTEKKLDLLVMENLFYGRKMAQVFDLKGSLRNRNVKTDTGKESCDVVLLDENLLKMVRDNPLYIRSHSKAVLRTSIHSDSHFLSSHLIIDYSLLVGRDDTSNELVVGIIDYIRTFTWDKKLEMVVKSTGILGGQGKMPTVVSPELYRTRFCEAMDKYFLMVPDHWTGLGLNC
Procathepsin L, sequence (P07711 whole entry): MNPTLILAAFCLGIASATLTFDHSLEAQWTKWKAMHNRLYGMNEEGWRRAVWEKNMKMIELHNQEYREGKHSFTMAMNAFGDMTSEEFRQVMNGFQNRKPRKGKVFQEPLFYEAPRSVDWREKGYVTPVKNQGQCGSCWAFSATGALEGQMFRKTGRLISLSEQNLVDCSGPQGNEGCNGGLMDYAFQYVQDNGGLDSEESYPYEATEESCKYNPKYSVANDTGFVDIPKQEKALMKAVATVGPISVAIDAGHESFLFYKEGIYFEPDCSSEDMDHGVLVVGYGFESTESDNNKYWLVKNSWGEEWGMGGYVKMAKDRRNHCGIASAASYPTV
Neuropilin-1, sequence (O14786 whole entry): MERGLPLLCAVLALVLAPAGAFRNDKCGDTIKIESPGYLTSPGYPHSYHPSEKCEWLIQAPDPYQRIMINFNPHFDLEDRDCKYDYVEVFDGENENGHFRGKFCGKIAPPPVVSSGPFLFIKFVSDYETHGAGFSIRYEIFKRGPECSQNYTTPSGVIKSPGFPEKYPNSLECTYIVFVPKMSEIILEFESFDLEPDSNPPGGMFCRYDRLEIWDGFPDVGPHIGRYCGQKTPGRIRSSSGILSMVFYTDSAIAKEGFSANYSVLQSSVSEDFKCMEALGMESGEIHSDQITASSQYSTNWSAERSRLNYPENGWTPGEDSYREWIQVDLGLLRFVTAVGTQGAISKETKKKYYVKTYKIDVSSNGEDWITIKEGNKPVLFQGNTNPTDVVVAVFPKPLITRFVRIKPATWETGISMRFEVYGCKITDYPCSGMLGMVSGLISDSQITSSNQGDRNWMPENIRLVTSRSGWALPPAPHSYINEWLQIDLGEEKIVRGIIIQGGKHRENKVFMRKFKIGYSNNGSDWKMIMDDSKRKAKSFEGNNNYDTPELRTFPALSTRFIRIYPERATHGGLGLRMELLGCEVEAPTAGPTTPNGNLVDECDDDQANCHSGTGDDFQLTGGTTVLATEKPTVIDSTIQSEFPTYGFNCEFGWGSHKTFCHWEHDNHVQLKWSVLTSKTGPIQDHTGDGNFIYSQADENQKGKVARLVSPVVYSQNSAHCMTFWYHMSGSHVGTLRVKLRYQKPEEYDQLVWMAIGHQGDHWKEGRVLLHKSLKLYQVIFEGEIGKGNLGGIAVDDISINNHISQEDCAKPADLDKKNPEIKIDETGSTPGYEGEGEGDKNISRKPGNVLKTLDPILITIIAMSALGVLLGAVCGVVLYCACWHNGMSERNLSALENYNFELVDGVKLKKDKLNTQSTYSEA

Question: How did the EC50 [1] turn out when O=C[C@H](Cc1ccc(O)cc1)NC(=O)[C@H](Cc1ccccc1)NC(=O)OCc1ccccc1 (Cbz-Phe-Tyr-aldehyde) was run?
Answer: 620 nM

Question: For N[C@H]1C(=O)N[C@@H]2Cc3ccc(c(Cl)c3)Oc3cc4cc(c3O)Oc3ccc(cc3Cl)[C@@H](O)[C@@H]3NC(=O)[C@H](NC(=O)[C@@H]4NC(=O)[C@@H](NC2=O)c2cc(O)cc(c2)Oc2cc1ccc2O)c1ccc(O)c(c1)-c1c(O)cc(O)cc1[C@@H](C(=O)O)NC3=O [TEICOPLANIN AGLYCON], which IC50 [2] is on record?
Answer: 208000 nM

Question: What about the IC50 [3] of the same molecule?
Answer: 2040 nM

Question: What about the IC50 [4] of the same molecule?
Answer: 1460 nM

Question: For C[C@H](NC(=O)[C@H](Cc1ccccc1)NC(=O)OCc1ccccc1)C(=O)CF, which EC50 [5] is on record?
Answer: 9610 nM

Question: And the EC50 [6]?
Answer: 701000 nM

Question: For Cc1nc(N2CCOCC2)ncc1-c1cc(=O)[nH]c(Nc2ccccc2)n1, which IC50 [7] is on record?
Answer: 0.598 nM

Question: CC(C)(C)OC(=O)N[C@@H](Cc1c[nH]c2ccccc12)C(=O)NNC(=O)OCC(=O)N1CCCc2ccccc21 was tested. Which EC50 [1] did it give?
Answer: 10900 nM

Question: With Cc1ncc(-c2ccc(C3=CCN(C(C)C)CC3)nc2)cc1NC(=O)c1ccc2[nH]c(C)c(C)c2n1 as the molecule, how does the IC50 [8] read?
Answer: 2 nM

Question: With CS(=O)(=O)N[C@@H](CCC(N)=O)C(=O)N[C@@H](Cc1ccccc1)C(=O)N[C@@H](CCCNC(=N)N)C(=O)c1nc2ccccc2s1 as the molecule, how does the EC50 [9] read?
Answer: 2.8 nM

Question: With COc1ccccc1/C=N/NC(=N)c1nonc1NCNc1nonc1C(=N)N/N=C/c1ccccc1OC as the molecule, how does the IC50 [10] read?
Answer: 19 nM

Question: With CCOC(=O)[C@H]1O[C@@H]1C(=O)N[C@@H](CC(C)C)C(=O)NCCC(C)C [ALOXISTATIN] as the molecule, how does the EC50 [1] read?
Answer: 270 nM

Question: COc1ccc(C(=O)Nc2cccc(C(F)(F)F)c2)cc1Nc1nc(-c2cccnc2)c2[nH]ccc2n1 was tested. Which EC50 [11] did it give?
Answer: 9.3 nM

Question: C#Cc1cccc(Nc2ncnc3cc(OCCOC)c(OCCOC)cc23)c1 [ERLOTINIB] was tested. Which EC50 [12] did it give?
Answer: > 20000 nM

Question: What about the EC50 [13] of the same molecule?
Answer: > 20000 nM

Question: Which results are given for CCC(O)(CC)c1ccc2[nH]c3c(c2c1)Cc1nc(N)ncc1CC3?
Answer: IC50 [14]: 1.8 nM; IC50 [15]: 23.9 nM

Question: With CCc1c(C)[nH]c2ccc(C(=O)Nc3cncc(-c4ccc(N5C[C@@H](C)O[C@@H](C)C5)nc4)c3)nc12 as the molecule, how does the IC50 [8] read?
Answer: 2.4 nM

Question: Which EC50 [6] does the source give for CCCC[C@@H](C=O)NC(=O)[C@H](CC(C)C)NC(=O)[C@H](CC(C)C)NC(C)=O (Ac-Leu-Leu-[Nle]-aldehyde) here?
Answer: 3120 nM

Question: CC(=O)N[C@@H](CO)C(=O)N[C@@H](CCCCN)C(=O)N[C@@H](CC(C)C)C(=O)N[C@@H](CCCNC(=N)N)C(=O)c1nc2ccccc2s1 was tested. Which EC50 [9] did it give?
Answer: 4270 nM

Question: Cn1nc(C(C)(C)C)cc1C(=O)N[C@@H](Cc1cccc(Cl)c1)C(=O)NCC#N was tested. Which EC50 [1] did it give?
Answer: 140 nM

Question: N#Cc1ccc(-c2cnc3[nH]cc(NC(=O)c4cccnc4)c3c2)cc1 was tested. Which EC50 [16] did it give?
Answer: 8000 nM

Question: And the EC50 [17]?
Answer: > 10000 nM

Question: Which EC50 [1] does the source give for O=C(N[C@H](/C=C/S(=O)(=O)c1ccccc1)CCc1ccccc1)[C@H](Cc1ccccc1)NC(=O)N1CCNCC1 here?
Answer: 35 nM

Question: For CN(C)Cc1ccc2[nH]c3c(c2c1)Cc1nc(N)ncc1CC3, which IC50 [14] is on record?
Answer: 6.9 nM

Question: And the IC50 [15]?
Answer: 19.5 nM
